Where two headings read alike, the source gives them in different places. Each block holds one compound with its values, some of them ahead of it.
Columns and labels:
Test in all cases: biochemical
FES = FES (Homo sapiens, UniProt P07332)
AurA = target: T1, AurA (Homo sapiens, UniProt O14965)
T1 sequence (O14965 1-403): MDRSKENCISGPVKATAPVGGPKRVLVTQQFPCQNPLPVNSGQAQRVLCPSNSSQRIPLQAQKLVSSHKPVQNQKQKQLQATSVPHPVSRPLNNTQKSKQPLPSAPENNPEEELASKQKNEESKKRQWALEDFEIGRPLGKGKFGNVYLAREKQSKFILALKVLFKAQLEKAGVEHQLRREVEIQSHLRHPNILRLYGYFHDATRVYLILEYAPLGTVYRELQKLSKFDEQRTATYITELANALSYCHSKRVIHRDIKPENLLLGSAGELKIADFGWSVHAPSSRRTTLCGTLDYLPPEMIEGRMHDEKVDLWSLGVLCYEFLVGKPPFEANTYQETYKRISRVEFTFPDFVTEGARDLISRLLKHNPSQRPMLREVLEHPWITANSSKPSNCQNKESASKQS

EphB3 = target: T2, EphB3 (Homo sapiens, UniProt P54753)
T2 sequence (P54753 1-998): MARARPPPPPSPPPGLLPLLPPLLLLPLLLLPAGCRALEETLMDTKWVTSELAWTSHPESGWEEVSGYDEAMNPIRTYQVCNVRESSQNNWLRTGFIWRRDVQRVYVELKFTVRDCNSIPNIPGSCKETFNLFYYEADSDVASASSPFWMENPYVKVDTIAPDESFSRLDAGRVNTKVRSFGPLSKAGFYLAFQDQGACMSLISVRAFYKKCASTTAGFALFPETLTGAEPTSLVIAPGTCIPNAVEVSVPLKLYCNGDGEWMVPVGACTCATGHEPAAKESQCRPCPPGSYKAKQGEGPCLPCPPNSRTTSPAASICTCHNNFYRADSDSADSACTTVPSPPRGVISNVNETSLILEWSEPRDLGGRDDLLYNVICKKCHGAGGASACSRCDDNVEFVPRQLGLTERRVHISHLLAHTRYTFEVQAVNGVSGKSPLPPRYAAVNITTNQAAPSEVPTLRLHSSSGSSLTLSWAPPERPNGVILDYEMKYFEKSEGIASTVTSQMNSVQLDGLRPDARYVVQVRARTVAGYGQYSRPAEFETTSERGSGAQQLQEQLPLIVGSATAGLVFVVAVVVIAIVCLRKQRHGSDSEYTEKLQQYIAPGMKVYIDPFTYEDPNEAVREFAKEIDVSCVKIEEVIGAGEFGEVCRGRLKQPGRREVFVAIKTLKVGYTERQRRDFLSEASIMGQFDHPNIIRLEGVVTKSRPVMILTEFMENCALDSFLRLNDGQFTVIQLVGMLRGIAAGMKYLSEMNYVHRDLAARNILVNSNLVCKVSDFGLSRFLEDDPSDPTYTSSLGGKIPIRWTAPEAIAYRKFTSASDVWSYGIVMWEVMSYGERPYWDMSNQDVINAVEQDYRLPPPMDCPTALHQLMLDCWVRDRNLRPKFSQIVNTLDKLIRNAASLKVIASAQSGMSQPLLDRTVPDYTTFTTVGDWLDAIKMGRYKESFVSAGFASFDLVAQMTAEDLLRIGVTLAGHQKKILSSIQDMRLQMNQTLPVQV

DRAK1 = target: T3, DRAK1 (Homo sapiens, UniProt Q9UEE5)
T3 sequence (Q9UEE5 1-414): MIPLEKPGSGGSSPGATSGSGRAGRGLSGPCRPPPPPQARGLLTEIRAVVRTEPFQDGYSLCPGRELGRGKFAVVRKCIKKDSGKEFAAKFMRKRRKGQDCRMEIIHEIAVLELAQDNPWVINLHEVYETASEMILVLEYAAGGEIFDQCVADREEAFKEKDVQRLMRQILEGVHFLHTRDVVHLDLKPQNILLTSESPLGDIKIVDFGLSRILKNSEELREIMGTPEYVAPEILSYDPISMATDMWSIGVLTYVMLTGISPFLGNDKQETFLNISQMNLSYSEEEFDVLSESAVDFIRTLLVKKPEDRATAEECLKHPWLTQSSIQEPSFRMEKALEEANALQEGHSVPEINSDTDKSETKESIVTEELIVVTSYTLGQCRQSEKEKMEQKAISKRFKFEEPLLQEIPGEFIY

FGFR2 = FGFR2 (Homo sapiens, UniProt P21802)
FGFR2, sequence (P21802 whole entry): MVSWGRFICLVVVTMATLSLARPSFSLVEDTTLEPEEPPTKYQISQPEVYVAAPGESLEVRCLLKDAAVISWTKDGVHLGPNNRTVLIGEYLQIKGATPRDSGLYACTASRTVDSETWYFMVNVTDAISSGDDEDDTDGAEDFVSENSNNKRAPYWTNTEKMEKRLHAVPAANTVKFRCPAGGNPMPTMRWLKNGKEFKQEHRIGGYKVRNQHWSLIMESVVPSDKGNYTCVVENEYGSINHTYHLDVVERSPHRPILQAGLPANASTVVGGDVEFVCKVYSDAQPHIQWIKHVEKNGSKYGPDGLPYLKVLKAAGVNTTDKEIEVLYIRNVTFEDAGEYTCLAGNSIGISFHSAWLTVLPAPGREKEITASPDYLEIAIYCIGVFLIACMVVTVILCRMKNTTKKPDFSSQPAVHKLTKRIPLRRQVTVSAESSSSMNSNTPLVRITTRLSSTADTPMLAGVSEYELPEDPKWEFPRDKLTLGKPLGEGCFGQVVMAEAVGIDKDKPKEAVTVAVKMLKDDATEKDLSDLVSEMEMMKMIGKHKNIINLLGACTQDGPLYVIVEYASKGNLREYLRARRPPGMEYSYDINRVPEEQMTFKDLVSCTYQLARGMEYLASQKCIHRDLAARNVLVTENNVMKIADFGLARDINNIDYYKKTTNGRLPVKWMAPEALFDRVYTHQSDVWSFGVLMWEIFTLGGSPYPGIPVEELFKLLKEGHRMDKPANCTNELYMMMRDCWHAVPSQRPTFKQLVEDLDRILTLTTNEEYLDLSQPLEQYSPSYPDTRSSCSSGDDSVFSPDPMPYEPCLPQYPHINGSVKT

DCAMKL1 = target: T4, DCAMKL1 (Homo sapiens, UniProt O15075)
T4 sequence (O15075 1-740): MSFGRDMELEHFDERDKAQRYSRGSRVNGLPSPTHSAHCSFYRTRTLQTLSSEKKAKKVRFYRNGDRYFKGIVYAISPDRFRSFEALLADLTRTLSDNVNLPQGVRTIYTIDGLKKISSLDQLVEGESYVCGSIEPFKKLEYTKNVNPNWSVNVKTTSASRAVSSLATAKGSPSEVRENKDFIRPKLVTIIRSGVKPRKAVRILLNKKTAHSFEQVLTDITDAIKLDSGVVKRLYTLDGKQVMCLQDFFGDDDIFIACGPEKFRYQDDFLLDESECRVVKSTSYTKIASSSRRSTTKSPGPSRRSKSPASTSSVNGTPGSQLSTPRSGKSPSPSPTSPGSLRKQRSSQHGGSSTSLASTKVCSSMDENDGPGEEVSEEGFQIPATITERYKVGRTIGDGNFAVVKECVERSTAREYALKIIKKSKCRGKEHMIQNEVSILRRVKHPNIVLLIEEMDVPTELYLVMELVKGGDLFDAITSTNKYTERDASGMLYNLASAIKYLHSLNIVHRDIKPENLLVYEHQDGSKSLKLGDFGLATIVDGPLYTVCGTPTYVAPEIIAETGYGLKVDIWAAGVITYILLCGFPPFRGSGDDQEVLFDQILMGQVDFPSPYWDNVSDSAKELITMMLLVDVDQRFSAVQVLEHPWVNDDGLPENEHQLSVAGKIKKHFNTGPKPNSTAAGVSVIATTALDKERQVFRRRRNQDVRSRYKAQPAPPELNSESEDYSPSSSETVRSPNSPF

FES, sequence (P07332 whole entry): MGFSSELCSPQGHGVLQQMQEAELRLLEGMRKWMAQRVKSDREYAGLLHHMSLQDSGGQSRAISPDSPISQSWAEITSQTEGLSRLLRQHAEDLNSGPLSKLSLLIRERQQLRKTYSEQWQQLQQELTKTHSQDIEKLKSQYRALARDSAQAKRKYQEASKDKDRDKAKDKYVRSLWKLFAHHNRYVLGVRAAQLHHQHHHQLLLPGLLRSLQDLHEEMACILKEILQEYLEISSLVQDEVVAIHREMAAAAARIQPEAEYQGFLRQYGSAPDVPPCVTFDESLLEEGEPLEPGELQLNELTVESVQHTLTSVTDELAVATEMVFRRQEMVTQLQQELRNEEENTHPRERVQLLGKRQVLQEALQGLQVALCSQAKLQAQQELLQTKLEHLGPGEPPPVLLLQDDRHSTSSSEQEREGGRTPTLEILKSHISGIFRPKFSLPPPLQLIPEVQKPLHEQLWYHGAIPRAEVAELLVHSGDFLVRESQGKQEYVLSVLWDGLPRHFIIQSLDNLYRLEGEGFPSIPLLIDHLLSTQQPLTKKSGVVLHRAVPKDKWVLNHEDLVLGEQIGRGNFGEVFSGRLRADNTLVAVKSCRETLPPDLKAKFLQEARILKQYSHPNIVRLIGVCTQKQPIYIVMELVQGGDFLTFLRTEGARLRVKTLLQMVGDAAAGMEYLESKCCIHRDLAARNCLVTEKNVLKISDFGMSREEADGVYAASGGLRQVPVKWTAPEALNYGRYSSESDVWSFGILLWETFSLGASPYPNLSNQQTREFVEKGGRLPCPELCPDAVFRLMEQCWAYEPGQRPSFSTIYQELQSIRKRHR

ΔTm at 10 µM (FES; read-out: dTm 6): 2.5 °C
ΔTm at 10 µM (AurA; read-out: dTm 6): 1.9 °C
ΔTm at 10 µM (EphB3; read-out: dTm 6): 3.5 °C
ΔTm at 10 µM (DRAK1; read-out: dTm 6): -0.1 °C
ΔTm at 10 µM (FGFR2; read-out: dTm 6): 4.1 °C
ΔTm at 10 µM (DCAMKL1; read-out: dTm 6): -0.5 °C
Structure (SMILES): CNc1ncc2cc(-c3cc(Br)ccc3Cl)c(=O)n(CCCCN)c2n1 [compound 6, 8-(4-Aminobutyl)-6-(5-bromo-2-chlorophenyl)-2-(methylamino)pyrido[2,3-d]pyrimidin-7(8H)-one]

ΔTm at 10 µM (AurA; read-out: dTm MR22 (5)): -3 °C
ΔTm at 10 µM (EphB3; read-out: dTm MR22 (5)): 3.3 °C
ΔTm at 10 µM (DRAK1; read-out: dTm MR22 (5)): -0.7 °C
ΔTm at 10 µM (FGFR2; read-out: dTm MR22 (5)): 3.7 °C
Structure (SMILES): CNc1ncc2cc(-c3cc(F)ccc3F)c(=O)n(CCCCN)c2n1 [compound 5, 8-(4-Aminobutyl)-6-(2,5-difluorophenyl)-2-(methylamino)pyrido[2,3-d]pyrimidin-7(8H)-one]

ΔTm at 10 µM (FES; read-out: dTm MR21 (4)): 3 °C
ΔTm at 10 µM (EphB3; read-out: dTm MR21 (4)): 6 °C
ΔTm at 10 µM (DRAK1; read-out: dTm MR21 (4)): 0.1 °C
ΔTm at 10 µM (FGFR2; read-out: dTm MR21 (4)): 4.7 °C
ΔTm at 10 µM (DCAMKL1; read-out: dTm MR21 (4)): 0.2 °C
Structure (SMILES): CNc1ncc2cc(-c3ccccc3Cl)c(=O)n(CCCCN)c2n1 [compound 4, 8-(4-Aminobutyl)-6-(2-chlorophenyl)-2-(methylamino)pyrido[2,3-d]pyrimidin-7(8H)-one]

The next lines start with the compound.

Structure (SMILES): CNc1ncc2cc(-c3cc(Br)ccc3Cl)c(=O)n(C[C@H]3OC[C@H](N)CO3)c2n1 [compound 7, 8-(((2r,5r)-5-Amino-1,3-dioxan-2-yl)methyl)-6-(5-bromo-2-chlorophenyl)-2-(methylamino)pyrido[2,3-d]pyrimidin-7(8H)-one]
ΔTm at 10 µM (FES; read-out: dTm 7): 1.1 °C
ΔTm at 10 µM (AurA; read-out: dTm 7): 1.4 °C
ΔTm at 10 µM (EphB3; read-out: dTm 7): 2.5 °C
ΔTm at 10 µM (DRAK1; read-out: dTm 7): 0.6 °C
ΔTm at 10 µM (FGFR2; read-out: dTm 7): 3.7 °C
ΔTm at 10 µM (DCAMKL1; read-out: dTm 7): 1 °C

Structure (SMILES): CNc1ncc2cc(-c3ccc(-c4cccc(C)n4)cc3Cl)c(=O)n(CC3OCC(N)CO3)c2n1 (stereo not drawn) [compound 2, G-5555]
dTm G-5555 (2) (FES; 10 µM, binder): 4.1 °C
dTm G-5555 (2) (AurA; 10 µM, binder): 8.5 °C
dTm G-5555 (2) (EphB3; 10 µM, binder): 1.7 °C
dTm G-5555 (2) (DRAK1; 10 µM, binder): -0.7 °C
dTm G-5555 (2) (FGFR2; 10 µM, binder): 0.7 °C
dTm G-5555 (2) (DCAMKL1; 10 µM, binder): 0.3 °C

Source: article doi:10.1101/2023.03.24.534094v2 (biorxiv, 2023)
